From patent publication US20230338378A1, “Methods of Administering Myosin Inhibitors” (MYOKARDIA, INC., priority 2022, published 2023)

Tests used:
CYP2C19 [1] = test: Pharmacogenomics: CYP2C19 poor vs normal metabolizers, single 15 mg dose; assay type: in vivo, human; details: for half-life: human, in vivo, 15 mg
Source text: Mean half-life is prolonged in CYP2C19 PMs compared to NMs (23 days vs. 6 to 9 days, respectively).
Polymorphic CYP2C19 is the main enzyme involved in the metabolism of MAVACAMTEN. An individual carrying two normal function alleles is a NM (e.g., *1/*1). An individual carrying two no function alleles is a PM (e.g., *2/*2, *2/*3, *3/*3).

[2] = test system: bacterial reverse mutation; test: Bacterial reverse mutation test (Ames test); assay type: cell-based
MATE2-K = MATE2-K (Homo sapiens, UniProt Q86VL8); test: In vitro transporter inhibition; assay type: in vitro ADME; details: In Vitro Studies
Chain of MATE2-K (Q86VL8 1-566 isoform Q86VL8-3): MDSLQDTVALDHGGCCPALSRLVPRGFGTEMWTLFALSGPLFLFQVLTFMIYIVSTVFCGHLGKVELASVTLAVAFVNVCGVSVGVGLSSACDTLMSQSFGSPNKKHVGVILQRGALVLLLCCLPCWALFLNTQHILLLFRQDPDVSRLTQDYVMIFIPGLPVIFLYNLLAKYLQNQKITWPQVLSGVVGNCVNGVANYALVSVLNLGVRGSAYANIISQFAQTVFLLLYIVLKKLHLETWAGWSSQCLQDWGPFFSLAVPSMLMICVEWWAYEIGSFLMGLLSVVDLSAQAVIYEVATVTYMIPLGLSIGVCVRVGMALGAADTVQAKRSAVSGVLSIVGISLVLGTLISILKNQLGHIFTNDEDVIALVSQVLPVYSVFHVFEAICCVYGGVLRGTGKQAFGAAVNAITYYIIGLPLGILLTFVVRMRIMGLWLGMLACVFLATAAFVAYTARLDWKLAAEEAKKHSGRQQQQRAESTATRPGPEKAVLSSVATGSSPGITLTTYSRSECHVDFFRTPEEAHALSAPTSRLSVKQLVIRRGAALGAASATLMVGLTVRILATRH

BCRP = BCRP (Homo sapiens, UniProt Q9UNQ0); test: In vitro transporter inhibition; assay type: in vitro ADME; details: In Vitro Studies
pregnant rabbits = test: Embryo-fetal development study in pregnant rabbits; assay type: in vivo, rabbit
Procedure: Visceral findings consisted of malformations of the great vessels (dilatation of pulmonary trunk and/or aortic arch). Skeletal malformations consisted of higher incidences of fused sternebrae at ≥1.2 mg/kg/day. Plasma exposure (AUC) at the no-effect dose for embryo-fetal development in rabbits is 0.4 times the exposure in humans at the MRHD.

Plasma protein binding = assay type: in vitro ADME
[3] = test system: organic anion transporting polypeptides (OATPs); test: In vitro transporter inhibition; assay type: in vitro ADME; details: In Vitro Studies
[4] = Pharmacokinetics in hepatic impairment; assay type: in vivo, human; details: mild (Child-Pugh A) or moderate (Child-Pugh B) hepatic impairment vs normal hepatic function
[5] = Human experience of overdose; assay type: in vivo
Procedure: Human experience of overdose with MAVACAMTEN is limited. MAVACAMTEN has been given as a single dose of up to 144 mg in patients with HCM. […] In healthy subjects, doses of up to 25 mg have been administered for up to 25 days, with 3 of 8 participants treated at the 25 mg dose level experiencing 20% or greater reductions in LVEF. An infant death was reported after accidental ingestion of three 15 mg capsules.

HCM patients = test: Meta-analysis of QTc across clinical studies in HCM patients; assay type: in vivo, human; details: therapeutic exposure range
Source text: The effect of coadministration of MAVACAMTEN with QT-prolonging drugs or in patients with potassium channel variants resulting in a long QT interval have not been characterized.

CYP2C19 [6] = biological target: T1, CYP2C19 (Homo sapiens, UniProt P33261); test: Concomitant use with weak CYP2C19 inhibitor omeprazole; assay type: in vivo; parameters: Mavacamten is hepatically metabolized predominantly via CYP2C19 (74%), CYP3A4 (18%) and CYP2C9 (8%); from tissue; host or cells: liver of human subjects in vivo, or a Simcyp virtual population; details: mavacamten 15 mg with omeprazole 20 mg once daily; healthy CYP2C19 NMs and RMs
T1 sequence (P33261 whole entry): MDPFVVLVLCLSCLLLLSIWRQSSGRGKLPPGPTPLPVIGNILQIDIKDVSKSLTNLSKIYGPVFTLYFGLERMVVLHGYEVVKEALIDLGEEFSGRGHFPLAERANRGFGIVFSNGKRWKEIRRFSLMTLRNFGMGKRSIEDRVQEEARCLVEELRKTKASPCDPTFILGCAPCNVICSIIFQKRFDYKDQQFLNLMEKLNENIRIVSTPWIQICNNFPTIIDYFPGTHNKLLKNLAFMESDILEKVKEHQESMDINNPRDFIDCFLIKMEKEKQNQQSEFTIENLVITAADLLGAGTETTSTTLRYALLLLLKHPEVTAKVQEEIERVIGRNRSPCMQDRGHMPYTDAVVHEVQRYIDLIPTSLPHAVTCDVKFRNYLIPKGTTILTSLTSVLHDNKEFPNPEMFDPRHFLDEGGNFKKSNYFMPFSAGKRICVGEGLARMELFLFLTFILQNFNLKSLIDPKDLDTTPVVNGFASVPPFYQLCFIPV

pregnant rats = test: Pre/postnatal development study in rats; assay type: in vivo, rat
Procedure: In a pre/postnatal development study, mavacamten was administered orally to pregnant rats (0.3, to 1.5 mg/kg/day) from gestation Day 6 to lactation/post-partum Day 20.

lymphocyte = test: Human in vitro lymphocyte clastogenicity assay; assay type: cell-based
CYP2D6 = CYP2D6 (Homo sapiens, UniProt P10635); test: In vitro CYP inhibition; assay type: in vitro ADME; details: In Vitro Studies; clinically relevant concentrations
Chain of CYP2D6 (P10635 whole entry): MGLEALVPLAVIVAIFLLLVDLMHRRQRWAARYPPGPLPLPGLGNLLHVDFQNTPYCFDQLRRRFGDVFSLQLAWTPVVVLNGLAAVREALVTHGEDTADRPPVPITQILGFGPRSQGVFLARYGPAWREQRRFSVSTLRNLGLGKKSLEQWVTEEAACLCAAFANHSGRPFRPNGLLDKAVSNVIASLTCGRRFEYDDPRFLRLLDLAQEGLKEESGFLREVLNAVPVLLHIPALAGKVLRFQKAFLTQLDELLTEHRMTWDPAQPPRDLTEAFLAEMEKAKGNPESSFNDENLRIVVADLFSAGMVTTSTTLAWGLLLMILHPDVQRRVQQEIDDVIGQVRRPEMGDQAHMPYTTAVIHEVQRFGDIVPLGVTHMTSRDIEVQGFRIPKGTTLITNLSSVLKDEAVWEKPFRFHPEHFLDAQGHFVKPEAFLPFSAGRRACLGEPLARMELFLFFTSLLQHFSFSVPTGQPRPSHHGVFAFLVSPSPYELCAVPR

Solubility = assay type: physicochemical
MATE1 = MATE1 (Homo sapiens, UniProt Q96FL8); test: In vitro transporter inhibition; assay type: in vitro ADME; details: In Vitro Studies
Chain of MATE1 (Q96FL8 whole entry): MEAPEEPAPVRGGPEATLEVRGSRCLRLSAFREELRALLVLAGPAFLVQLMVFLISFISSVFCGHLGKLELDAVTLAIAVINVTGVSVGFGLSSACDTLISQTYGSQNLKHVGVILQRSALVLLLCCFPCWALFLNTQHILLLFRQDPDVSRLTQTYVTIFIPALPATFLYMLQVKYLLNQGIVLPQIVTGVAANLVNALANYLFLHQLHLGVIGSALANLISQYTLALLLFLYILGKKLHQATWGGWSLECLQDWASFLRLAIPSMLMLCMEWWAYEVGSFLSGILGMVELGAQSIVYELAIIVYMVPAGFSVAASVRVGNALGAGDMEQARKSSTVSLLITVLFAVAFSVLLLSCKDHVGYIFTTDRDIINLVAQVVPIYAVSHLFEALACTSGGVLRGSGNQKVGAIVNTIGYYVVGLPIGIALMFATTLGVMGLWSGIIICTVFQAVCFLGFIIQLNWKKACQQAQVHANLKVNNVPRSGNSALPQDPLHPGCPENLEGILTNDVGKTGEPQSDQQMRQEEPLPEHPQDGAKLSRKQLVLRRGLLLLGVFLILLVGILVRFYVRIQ

rasH2 transgenic mouse = test: 6-month rasH2 transgenic mouse carcinogenicity study; assay type: in vivo
healthy volunteers = test: Cardiac electrophysiology (QTc) in healthy volunteers; assay type: in vivo, human
Source text: The mechanism of the QT prolongation effect is not known.

CYP2C19, CYP3A4 = test: Established and Potentially Significant Pharmacokinetic Drug Interactions with MAVACAMTEN (Table 1); details: Concomitant use with a moderate to strong CYP2C19 inducer or a moderate to strong CYP3A4 inducer
P-gp = P-gp (Homo sapiens, UniProt P08183); test: In vitro transporter inhibition; assay type: in vitro ADME; details: In Vitro Studies
CYP2C19 [7] = biological target: T1, CYP2C19; test: In vitro CYP inhibition; assay type: in vitro ADME; details: In Vitro Studies; clinically relevant concentrations
[8] = test system: organic cation transporters (OCTs); test: In vitro transporter inhibition; assay type: in vitro ADME; details: In Vitro Studies
BSEP = BSEP (Homo sapiens, UniProt O95342); test: In vitro transporter inhibition; assay type: in vitro ADME; details: In Vitro Studies
Chain of BSEP (O95342 whole entry): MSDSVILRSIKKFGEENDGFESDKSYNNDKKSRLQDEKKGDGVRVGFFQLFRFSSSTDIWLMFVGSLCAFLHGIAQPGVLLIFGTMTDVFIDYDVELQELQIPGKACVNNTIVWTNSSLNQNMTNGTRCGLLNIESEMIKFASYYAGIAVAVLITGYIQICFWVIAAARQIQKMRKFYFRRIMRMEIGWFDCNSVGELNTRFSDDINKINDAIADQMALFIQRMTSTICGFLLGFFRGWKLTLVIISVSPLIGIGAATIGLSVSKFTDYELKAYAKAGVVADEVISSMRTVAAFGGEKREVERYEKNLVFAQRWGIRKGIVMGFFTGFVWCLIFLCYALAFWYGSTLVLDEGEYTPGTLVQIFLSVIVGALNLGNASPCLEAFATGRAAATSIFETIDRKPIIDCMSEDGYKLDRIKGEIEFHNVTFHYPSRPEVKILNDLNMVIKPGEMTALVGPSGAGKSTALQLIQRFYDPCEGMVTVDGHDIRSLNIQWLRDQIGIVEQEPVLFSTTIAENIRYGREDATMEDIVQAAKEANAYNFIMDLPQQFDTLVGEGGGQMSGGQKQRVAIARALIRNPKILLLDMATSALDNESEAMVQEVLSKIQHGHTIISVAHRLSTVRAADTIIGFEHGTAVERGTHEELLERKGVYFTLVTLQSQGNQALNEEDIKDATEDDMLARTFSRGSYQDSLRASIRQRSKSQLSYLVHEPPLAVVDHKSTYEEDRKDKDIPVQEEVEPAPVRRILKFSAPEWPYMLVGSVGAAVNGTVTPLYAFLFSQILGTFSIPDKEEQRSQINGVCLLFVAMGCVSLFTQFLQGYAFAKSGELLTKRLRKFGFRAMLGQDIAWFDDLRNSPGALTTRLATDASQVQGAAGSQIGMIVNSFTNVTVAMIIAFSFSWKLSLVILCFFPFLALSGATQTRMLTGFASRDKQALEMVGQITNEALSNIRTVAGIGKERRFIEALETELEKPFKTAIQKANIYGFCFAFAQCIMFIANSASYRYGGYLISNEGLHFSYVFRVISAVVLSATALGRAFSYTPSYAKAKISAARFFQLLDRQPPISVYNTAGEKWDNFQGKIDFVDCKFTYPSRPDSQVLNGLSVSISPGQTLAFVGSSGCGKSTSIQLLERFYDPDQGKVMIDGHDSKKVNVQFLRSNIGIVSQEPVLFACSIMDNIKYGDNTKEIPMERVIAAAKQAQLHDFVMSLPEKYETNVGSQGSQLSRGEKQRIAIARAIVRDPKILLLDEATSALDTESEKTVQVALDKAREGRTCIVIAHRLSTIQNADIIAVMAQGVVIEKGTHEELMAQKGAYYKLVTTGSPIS

[9] = test system: organic anion transporters (OATs); test: In vitro transporter inhibition; assay type: in vitro ADME; details: In Vitro Studies
CYP2C9 = CYP2C9 (Homo sapiens, UniProt P11712); test: Metabolism through CYP enzymes
Chain of CYP2C9 (P11712 whole entry): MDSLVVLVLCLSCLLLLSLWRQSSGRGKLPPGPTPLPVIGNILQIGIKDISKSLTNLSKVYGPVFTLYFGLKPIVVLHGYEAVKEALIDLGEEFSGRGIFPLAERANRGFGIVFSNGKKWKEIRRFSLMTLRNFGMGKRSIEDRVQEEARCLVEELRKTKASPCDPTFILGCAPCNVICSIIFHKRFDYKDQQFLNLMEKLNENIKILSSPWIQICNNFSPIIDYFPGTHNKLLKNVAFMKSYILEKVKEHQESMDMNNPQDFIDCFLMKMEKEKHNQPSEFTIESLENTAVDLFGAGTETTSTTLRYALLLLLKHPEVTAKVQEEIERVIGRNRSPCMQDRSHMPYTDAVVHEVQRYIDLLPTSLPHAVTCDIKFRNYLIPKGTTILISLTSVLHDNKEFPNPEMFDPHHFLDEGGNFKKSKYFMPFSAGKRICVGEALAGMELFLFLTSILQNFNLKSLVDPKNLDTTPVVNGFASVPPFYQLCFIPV

CYP2C8 = CYP2C8 (Homo sapiens, UniProt P10632); test: In vitro CYP inhibition; assay type: in vitro ADME; details: In Vitro Studies
Chain of CYP2C8 (P10632 whole entry): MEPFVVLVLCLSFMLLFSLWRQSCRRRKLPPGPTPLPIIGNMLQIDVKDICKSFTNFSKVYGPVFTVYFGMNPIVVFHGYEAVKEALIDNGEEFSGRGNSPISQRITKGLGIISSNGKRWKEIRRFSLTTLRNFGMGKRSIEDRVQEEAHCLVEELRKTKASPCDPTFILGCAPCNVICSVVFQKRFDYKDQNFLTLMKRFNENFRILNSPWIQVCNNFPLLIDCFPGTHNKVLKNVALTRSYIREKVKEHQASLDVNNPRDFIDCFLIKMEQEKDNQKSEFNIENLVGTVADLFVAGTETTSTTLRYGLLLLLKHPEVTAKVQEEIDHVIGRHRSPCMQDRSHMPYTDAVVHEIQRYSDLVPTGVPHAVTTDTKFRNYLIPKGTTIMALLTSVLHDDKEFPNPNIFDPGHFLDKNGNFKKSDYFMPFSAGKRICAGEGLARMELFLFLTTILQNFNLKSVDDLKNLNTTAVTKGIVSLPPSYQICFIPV

[10] = CYP2C19 PMs compared to NMs, single dose of 15 mg

Compound: CC(C)n1c(=O)cc(N[C@@H](C)c2ccccc2)[nH]c1=O [mavacamten, (S)-3-Isopropyl-6-((1-phenylethyl)amino)pyrimidine-2,4(1H,3H)-dione]
- AUCinf increase (CYP2C19 [1]; [10]): 241%
- Cmax increase (CYP2C19 [1]; [10]): 47%
- half-life (CYP2C19 [1]; CYP2C19 NMs): 6 to 9 days
- half-life (CYP2C19 [1]; CYP2C19 PMs): 23 days
- genotoxicity [2]: not genotoxic
- inhibition of MATE2-K (MATE2-K): does not inhibit
- inhibition of BCRP (BCRP): does not inhibit
- embryo-fetal findings (pregnant rabbits; pregnant rabbits, oral, period of organogenesis, doses of 1.2 mg/kg/day and higher): fetal malformations (visceral and skeletal) were increased
- Plasma exposure (AUC) at the no-effect dose for embryo-fetal development vs exposure in humans at the MRHD (pregnant rabbits; rabbits): 0.4 times
- fraction unbound (Plasma protein binding): 0.02 to 0.03
- inhibition of OATPs [3]: does not inhibit
- exposure (AUC) increase [4]: up to 220%
- events after overdose ([5]; one subject, single dose of 144 mg, subject recovered): serious adverse events including vasovagal reaction, hypotension, and asystole
- outcome after accidental ingestion ([5]; three 15 mg capsules): infant death
- QTc interval (HCM patients): does not suggest clinically relevant increases in the QTc interval
- effect on mavacamten Cmax (CYP2C19 [6]): no effect
- mavacamten AUCinf increase (CYP2C19 [6]): 48%
- no-observed-adverse-effect level (NOAEL) (pregnant rats; pre/postnatal development study, rats, highest dosage level tested): 1.5 mg/kg/day
- effects in dams or offspring (pregnant rats; pregnant rats, oral 0.3 to 1.5 mg/kg/day, gestation Day 6 to lactation/post-partum Day 20): No adverse effects were observed
- genotoxicity (lymphocyte): not genotoxic
- inhibition of CYP2D6 (CYP2D6): not an inhibitor
- solubility (Solubility; DMSO and NMP): freely soluble
- solubility (Solubility; methanol and ethanol): sparingly soluble
- solubility (Solubility; water and aqueous buffers at pH 2-10): practically insoluble
- inhibition of MATE1 (MATE1): does not inhibit
- carcinogenicity (rasH2 transgenic mouse; 6-month rasH2 transgenic mouse, up to 2.0 mg/kg/day in males and 3.0 mg/kg/day in females): no evidence of carcinogenicity
- exposure (AUC) compared to AUC exposures in humans at the MRHD (rasH2 transgenic mouse; females, 3.0 mg/kg/day): 3 fold
- exposure (AUC) compared to AUC exposures in humans at the MRHD (rasH2 transgenic mouse; males, 2.0 mg/kg/day): 1.8 fold
- QTc interval (healthy volunteers; healthy volunteers, multiple doses up to 25 mg once daily): concentration-dependent increase in the QTc interval
- QTc interval (healthy volunteers; similar exposures during single-dose studies): No acute QTc changes
- Clinical Impact on mavacamten exposure (CYP2C19, CYP3A4): moderate to strong CYP3A4 inducer decreases mavacamten exposure,
- inhibition of P-gp (P-gp): does not inhibit
- inhibition of CYP2C19 (CYP2C19 [7]): not an inhibitor
- inhibition of OCTs [8]: does not inhibit
- inhibition of BSEP (BSEP): does not inhibit
- inhibition of OATs [9]: does not inhibit
- metabolized through CYP2C9 (CYP2C9): 8%
- inhibition of CYP2C8 (CYP2C8): does not inhibit
